# In US9630991B2, “βsheet tapes ribbons in tissue engineering” (University of Leeds, priority 2002, dated 2017):
# “Also recorded” adds a separate entry of the source. Counter-ions that a name gives are not always drawn. Where a SMILES comes first, the peptide text is derived from it. Where no end group is shown, it is not given here. [ ]: non-standard residue; d: D form. Orn = NCCC[C@H](N)C(=O)O
# Assays:
# L929 fibroblast cells = test: Cell density in peptide gels by ATPLite assay; assay type: cell-based, murine
# Excerpt: After establishing that the peptides tested were not cytotoxic when placed in culture with L929 fibroblast cells, the next stage was assessing the suitability of the collagen peptide gels for use in supporting cell proliferation.
# [1] = Fibril dimensions measured from TEM images; assay type: physicochemical; details: physiological conditions, TEM
# Procedure: For, electron microscopy, samples were examined using a Phillips CM10 TEM at 80-100 kV accelerating voltage. Gels were diluted to a peptide concentration of 20 μM seconds before application to a glow-discharged, carbon-coated, copper grid followed by coating with uranyl acetate solution (4% w/v in water).
# The dimensions of the fibrils formed by these peptides are given in Table 2, and TEM images from which these measurements were obtained are shown in FIGS. 6A-6D. These dimensions are—the length of a peptide fibril (contour length, L), the length of a peptide fibril before it curves (persistence length, l), the length of a full twist of a peptide fibril (twist pitch, h) the width of a fibril at its widest point (ww) and the width of the fibril at its narrowest point as it twists (wn).
# [2] = Net charge of peptide at pH 7.5 in physiological solution; assay type: physicochemical; details: per peptide, pH 7.5, physiological solution
# [3] = Self-assembly and gel formation in physiological solution / cell media; assay type: physicochemical; details: for peptide concentration for self-supporting gel: physiological conditions
# Excerpt: A large number (dozens) of systematically varied peptides (typically 7-30 residues long) have been studied for soluble polymer and gel formation in cell media. […] Only peptides with a approximate net +2 or −2 charge per peptide at physiological pH=7.5, were able to form soluble polymers and gel cell media (The amount of net charge necessary per peptide to keep its polymers soluble in cell media will vary depending on the overall surface properties and solubility of the peptide tapes it forms). […] These peptides retained a predominantly monomeric state and their solutions in cell media were fluids up to around 40 mg/ml peptide concentration.
# The rationally designed peptide P11-8 (Tables 1A and 1C) was dissolved in 145 mM NaCl, pH˜7.5 aqueous solution (the ionic strength and pH values of the solution were similar to those present in cell culture medium) or it was added directly in cell culture medium.
# The fibrils of P11-8 entwined partly with each other forming a three dimensional network and turned the peptide solution in cell media into a homogeneous self-supporting gel at peptide concentration higher than 15 mg/ml.
# The gel could be temporarily broken by mechanical agitation. The time it took the gel to reform depended on the peptide concentration, ranging from seconds for a 35 mg/ml peptide gel, to hours for a 15 mg/ml peptide gel.
# [4] = tested on: tissue surrounding the injection site; set-up: species or system mice; details: mouse, in vivo
# Excerpt: Injection of P11-3 and P11-8 peptide solutions in cell media in mice has shown no effect of the presence of the peptide in the tissue surrounding the injection site as judged by histology after two and eight weeks following the peptide injection.
Molecule,"L, fibril contour length [1]","h, twist pitch [1]","l, fibril persistence length [1]","wn, width of the fibril at its narrowest point [1]","ww, width of the fibril at its widest point [1]",Net charge at pH 7.5 [2],also measured
"CC(=O)N[C@@H](CO)C(=O)N[C@@H](CO)C(=O)N[C@@H](CCCNC(=N)N)C(=O)N[C@@H](Cc1ccccc1)C(=O)N[C@@H](CCC(=O)O)C(=O)N[C@@H](Cc1c[nH]c2ccccc12)C(=O)N[C@@H](CCC(=O)O)C(=O)N[C@@H](Cc1ccccc1)C(=O)N[C@@H](CCC(=O)O)C(=O)N[C@@H](CO)C(=O)N[C@@H](CO)C(N)=O [Peptide P11-9, CH3CO-S-S-R-F-E-W-E-F-E-S-S-NH2] (Ac-SSRFEWEFESS-NH2)",1.1-5 μm,118-236 nm,0.4-1.3 μm,3.5-7 nm,7-12 nm,−2,support of cell growth (L929 fibroblast cells; L929 cells in peptide gels): unsuccessful in supporting cell growth
"CC(=O)N[C@@H](CO)C(=O)N[C@@H](CO)C(=O)N[C@@H](CCCNC(=N)N)C(=O)N[C@@H](Cc1ccccc1)C(=O)N[C@@H](CCCN)C(=O)N[C@@H](Cc1c[nH]c2ccccc12)C(=O)N[C@@H](CCCN)C(=O)N[C@@H](Cc1ccccc1)C(=O)N[C@@H](CCC(=O)O)C(=O)N[C@@H](CO)C(=O)N[C@@H](CO)C(N)=O [Peptide P11-12, CH3CO-S-S-R-F-O-W-O-F-E-S-S-NH2] (Ac-SSRF[Orn]W[Orn]FESS-NH2)",1.3-5 μm,139-220 nm,0.4-1.2 μm,5-7 nm,11-16 nm,+2,support of cell growth (L929 fibroblast cells; L929 cells in peptide gels): unsuccessful in supporting cell growth
"CC(=O)N[C@H](C(=O)N[C@H](C(=O)N[C@@H](CCCNC(=N)N)C(=O)N[C@@H](Cc1ccccc1)C(=O)N[C@@H](CCC(=O)O)C(=O)N[C@@H](Cc1c[nH]c2ccccc12)C(=O)N[C@@H](CCC(=O)O)C(=O)N[C@@H](Cc1ccccc1)C(=O)N[C@@H](CCC(=O)O)C(=O)N[C@H](C(=O)N[C@H](C(N)=O)[C@@H](C)O)[C@@H](C)O)[C@@H](C)O)[C@@H](C)O [Peptide P11-17, CH3CO-T-T-R-F-E-W-E-F-E-T-T-NH2] (Ac-TTRFEWEFETT-NH2)",1.3-4.5 μm,150-236 nm,0.3-1.7 μm,5-10 nm,10-16 nm,−2,–
"CC(=O)N[C@H](C(=O)N[C@H](C(=O)N[C@@H](CCCNC(=N)N)C(=O)N[C@@H](Cc1ccccc1)C(=O)N[C@@H](CCCN)C(=O)N[C@@H](Cc1c[nH]c2ccccc12)C(=O)N[C@@H](CCCN)C(=O)N[C@@H](Cc1ccccc1)C(=O)N[C@@H](CCC(=O)O)C(=O)N[C@H](C(=O)N[C@H](C(N)=O)[C@@H](C)O)[C@@H](C)O)[C@@H](C)O)[C@@H](C)O [Peptide P11-18, CH3CO-T-T-R-F-O-W-O-F-E-T-T-NH2] (Ac-TTRF[Orn]W[Orn]FETT-NH2)",1.4-4.2 μm,142-236 nm,0.5-1.7 μm,7-11 nm,11-21 nm,+2,support of cell growth (L929 fibroblast cells; L929 cells in peptide gels): unsuccessful in supporting cell growth
"CC(=O)N[C@@H](CCC(N)=O)C(=O)N[C@@H](CCC(N)=O)C(=O)N[C@@H](CCCNC(=N)N)C(=O)N[C@@H](CCC(N)=O)C(=O)N[C@@H](CCCN)C(=O)N[C@@H](CCC(N)=O)C(=O)N[C@@H](CCCN)C(=O)N[C@@H](CCC(N)=O)C(=O)N[C@@H](CCC(=O)O)C(=O)N[C@@H](CCC(N)=O)C(=O)N[C@@H](CCC(N)=O)C(N)=O [Peptide P11-19, CH3CO-Q-Q-R-Q-O-Q-O-Q-E-Q-Q-NH2] (Ac-QQRQ[Orn]Q[Orn]QEQQ-NH2)",1.5-3 μm,206-356 nm,0.5-1 μm,7-13 nm,15-22 nm,+2,"peptide concentration for self-supporting gel [3]: 60 mg/mL; self-assembly / gelation at 30 mg·ml^−1 ([3]; physiological solution, 30 mg·ml^−1): does not self assemble; also recorded: did not gel"
"CC(=O)N[C@@H](CCC(N)=O)C(=O)N[C@@H](CCC(N)=O)C(=O)N[C@@H](CCCNC(=N)N)C(=O)N[C@@H](CCC(N)=O)C(=O)N[C@@H](CCC(=O)O)C(=O)N[C@@H](CCC(N)=O)C(=O)N[C@@H](CCC(=O)O)C(=O)N[C@@H](CCC(N)=O)C(=O)N[C@@H](CCC(=O)O)C(=O)N[C@@H](CCC(N)=O)C(=O)N[C@@H](CCC(N)=O)C(N)=O [Peptide P11-20, CH3CO-Q-Q-R-Q-E-Q-E-Q-E-Q-Q-NH2] (Ac-QQRQEQEQEQQ-NH2)",0.9-2.8 μm,202-363 nm,0.4-1.5 μm,8-15 nm,14-20 nm,−2,support of cell growth (L929 fibroblast cells; L929 cells in peptide gels): supported cell growth reasonably well; macroscopic appearance of gel (L929 fibroblast cells; at end of cell culture experiment): some signs of macroscopic degradation; peptide concentration for self-supporting gel [3]: > 20 mg/mL
O=C(O)C(F)(F)F [TFA],–,–,–,–,–,–,support of cell growth (L929 fibroblast cells; collagen gels supplemented with 0.9 mg·ml^−1 TFA): supported cell growth with no obvious detrimental effect on the cells; support of cell growth (L929 fibroblast cells; collagen gels supplemented with 5.1 mg·ml^−1 TFA): supported cell growth with no visible detrimental effect on cell growth
CH3CO-E-Q-E-F-E-W-E-F-E-Q-E-HN2 (Ac-EQEFEWEFEQE-NH2) [Peptide P11-13],–,–,–,–,–,-6,–
CH3CO-Q-Q-O-F-O-W-O-F-O-Q-Q-NH2 (Ac-QQ[Orn]F[Orn]W[Orn]F[Orn]QQ-NH2; SMILES CC(=O)N[C@@H](CCC(N)=O)C(=O)N[C@@H](CCC(N)=O)C(=O)N[C@@H](CCCN)C(=O)N[C@@H](Cc1ccccc1)C(=O)N[C@@H](CCCN)C(=O)N[C@@H](Cc1c[nH]c2ccccc12)C(=O)N[C@@H](CCCN)C(=O)N[C@@H](Cc1ccccc1)C(=O)N[C@@H](CCCN)C(=O)N[C@@H](CCC(N)=O)C(=O)N[C@@H](CCC(N)=O)C(N)=O) [Peptide P11-14],–,–,–,–,–,+4,–
CH3CO-Q-Q-R-F-E-W-E-F-E-Q-Q-NH2 (Ac-QQRFEWEFEQQ-NH2) [Peptide P11-4],1.2-7 μm,132-360 nm,0.7-1.4 μm,5.5-8 nm,8-14 nm,−2,–
QQE^-FE^-WE^-FE^±QQ (QQEFEWEFEQQ; self assembling peptide P11-23),–,–,–,–,–,-4,–
"QQO^+FO^+WO^+FQQQ (QQ[Orn]F[Orn]W[Orn]FQQQ; not fully specified (N-terminus, C-terminus); printed as QQO+FO+WO+FQQQ) [Peptide P11-5]",–,–,–,–,–,+3,–
QQQFE^-WE^-FE^±QQ (QQQFEWEFEQQ; self assembling peptide P11-22),–,–,–,–,–,-3,–
QQQFQWQFE^-QQ (QQQFQWQFEQQ; self assembling peptide P11-21),–,–,–,–,–,-1,–
QQR^+FQWQFQQQ (QQRFQWQFQQQ; self assembling peptide P11-3),–,–,–,–,–,–,fibrils and gels after sterilisation using an autoclave ([3]; cell media): reform after sterilisation using an autoclave; effect on tissue surrounding the injection site by histology [4]: no effect
